How the values were obtained:
[1] = test system: Burkitt lymphoma CA46 cells; experiment: Growth inhibition of Burkitt lymphoma CA46 cells; type: cell-based; conditions: Homo sapiens, CA46, read-out: IC50 in CA46 cells
tubulin [2] = conditions: highest concentration examined 100 µM; cited from earlier work
tubulin [3] = conditions: cited from earlier work
[4] = test system: PBL not stimulated with PHA; experiment: Cytotoxicity for resting peripheral blood lymphocytes; type: cell-based; conditions: Homo sapiens, Lymphocyte, read-out: IC50 PBLresting
HeLa cells [5] = experiment: Immunofluorescence of the microtubule network; type: cell-based, human; conditions: 25 µM, 24 h
cdc25C = experiment: Western blot in HeLa cells; type: cell-based, human; conditions: 25 µM; for cdc25c expression: 48 h; for cdc25C forms: 24 h
Bcl-2 = experiment: Western blot in HeLa cells; type: cell-based, human; conditions: 25 µM, 24 h
Mcl-1 = experiment: Western blot in HeLa cells; type: cell-based, human; conditions: 25 µM, 24 h
HeLa cells [6] = experiment: Annexin-V/PI flow cytometry; type: cell-based, human; conditions: 24 or 48 h
cyclin B = experiment: Western blot in HeLa cells; type: cell-based, human; conditions: 25 µM
aurora kinase A = experiment: Western blot in HeLa cells; type: cell-based, human; conditions: 25 µM, 24 h
γ-H2A.X = experiment: Western blot in HeLa cells; type: cell-based, human; conditions: 25 µM, 24 h

## COc1ccc(/C=C\c2cc(OC)c(OC)c(OC)c2)cc1O [CA-4, combretastatin A-4]
[1]
  IC50: 20 ± 7 nM

## COc1ccc2c(c1OC)C(=O)O[C@@H]2[C@H]1c2c(cc3c(c2OC)OCO3)CCN1C [Compound 1, (S)-6,7-dimethoxy-3-((R)-4′-methoxy-6′-methyl-5′,6′,7′,8′-tetrahydro[1,3]dioxolo-[4,5]isoquinolin-5′-yl)isobenzofuran-1(3H)-one]
Tubulin [2]
  inhibition of colchicine binding (fluorescence): no activity
Tubulin [3]
  inhibition of [3H]colchicine binding to tubulin: without success

## COc1ccc2c(c1OC)C(=O)O[C@@H]2[C@H]1c2c(c(Br)c3c(c2OC)OCO3)CCN1C [Compound 2, 9′-bromonoscapine, reference compound]
[4]
  IC50: > 200 µM
HeLa cells [5]
  cells with induced spherical morphology (microtubule rearrangement): 70–80%
cdc25C
  cdc25c expression: strongly decreased
Bcl-2
  Bcl-2 expression: reduced
Mcl-1
  Mcl-1 band: strongly reduced
HeLa cells [6]
  annexin-V positive cells (apoptosis): slightly more active than the other three compounds
Tubulin [2]
  inhibition of colchicine binding (fluorescence): inhibition of colchicine binding

## COc1ccc2c(c1OC)C(=O)O[C@@H]2[C@H]1c2c(c(C)c3c(c2OC)OCO3)CCN1C [Compound 3, 9′-Methylnoscapine]
[4]
  IC50: > 200 µM
HeLa cells [5]
  cells with induced spherical morphology (microtubule rearrangement): 70–80%
Cyclin B; 24 h
  cyclin B expression: increased expression
Cyclin B; 48 h
  cyclin B expression: disappearance
Aurora kinase A
  aurora kinase levels: increased
γ-H2A.X
  expression of γ-H2A.X: marked increase
Bcl-2
  Bcl-2 expression: reduced
Mcl-1
  Mcl-1 band: strongly reduced

## COc1ccc2c(c1OC)C(=O)O[C@@H]2[C@H]1c2c(c(-c3ccccc3)c3c(c2OC)OCO3)CCN1C [Compound 4, 9′-Phenylnoscapine]
[4]
  IC50: > 200 µM
Cyclin B; 24 h
  cyclin B expression: increased expression
Cyclin B; 48 h
  cyclin B expression: disappearance
cdc25C
  cdc25C forms: slower migrating forms
  cdc25c expression: strongly decreased
Aurora kinase A
  aurora kinase levels: increased
γ-H2A.X
  expression of γ-H2A.X: marked increase
Mcl-1
  Mcl-1 band: strongly reduced

## COc1ccc2c(c1OC)C(=O)O[C@@H]2[C@H]1c2c(c(-c3ccc(C)cc3)c3c(c2OC)OCO3)CCN1C [Compound 5, 9′-(4-Methylphenyl)-noscapine]
[4]
  IC50: > 200 µM
Cyclin B; 24 h
  cyclin B expression: increased expression
Cyclin B; 48 h
  cyclin B expression: disappearance
cdc25C
  cdc25C forms: slower migrating forms
  cdc25c expression: strongly decreased
Aurora kinase A
  aurora kinase levels: increased
γ-H2A.X
  expression of γ-H2A.X: marked increase

## COc1ccccc1-c1c2c(c(OC)c3c1OCO3)[C@H]([C@H]1OC(=O)c3c1ccc(OC)c3OC)N(C)CC2 [Compound 6, 9′-(2-Methoxyphenyl)-noscapine]
[4]
  IC50: > 200 µM

## COc1cccc(-c2c3c(c(OC)c4c2OCO4)[C@H]([C@H]2OC(=O)c4c2ccc(OC)c4OC)N(C)CC3)c1 [Compound 7, 9′-(3-Methoxyphenyl)-noscapine]
[4]
  IC50: > 200 µM
HeLa cells [5]
  cells with induced spherical morphology (microtubule rearrangement): 70–80%

## COc1ccc(-c2c3c(c(OC)c4c2OCO4)[C@H]([C@H]2OC(=O)c4c2ccc(OC)c4OC)N(C)CC3)cc1 [Compound 8, 9′-(4-Methoxyphenyl)-noscapine]
[4]
  IC50: > 200 µM

## COc1ccc2c(c1OC)C(=O)O[C@@H]2[C@H]1c2c(c(-c3ccc4ccccc4c3)c3c(c2OC)OCO3)CCN1C [Compound 9, 9′-(2-Naphthyl)-noscapine]
[4]
  IC50: > 200 µM

Reference: article PMC4143145 (European journal of medicinal chemistry, 2014)
